We go through two molecules from PMC10003107, “Selectivity of Hydroxamate- and Difluoromethyloxadiazole-Based Inhibitors of Histone Deacetylase 6 In Vitro and in Cells” (International Journal of Molecular Sciences, 2023).

Molecules are shown by their SMILES. Values joined by “and” are separate entries in the source; they are usually repeats but may differ in a detail not shown here. Equal entries are not always repeated.

In one data set the target is T1, HDAC6 (Homo sapiens, UniProt Q9UBN7).
T1 construct: HDAC6 2-1215 Open Biosystems; Strep-FLAG-HALO (N); made in house; host or cells: HEK293/T17
T1 sequence (Q9UBN7 2-1215): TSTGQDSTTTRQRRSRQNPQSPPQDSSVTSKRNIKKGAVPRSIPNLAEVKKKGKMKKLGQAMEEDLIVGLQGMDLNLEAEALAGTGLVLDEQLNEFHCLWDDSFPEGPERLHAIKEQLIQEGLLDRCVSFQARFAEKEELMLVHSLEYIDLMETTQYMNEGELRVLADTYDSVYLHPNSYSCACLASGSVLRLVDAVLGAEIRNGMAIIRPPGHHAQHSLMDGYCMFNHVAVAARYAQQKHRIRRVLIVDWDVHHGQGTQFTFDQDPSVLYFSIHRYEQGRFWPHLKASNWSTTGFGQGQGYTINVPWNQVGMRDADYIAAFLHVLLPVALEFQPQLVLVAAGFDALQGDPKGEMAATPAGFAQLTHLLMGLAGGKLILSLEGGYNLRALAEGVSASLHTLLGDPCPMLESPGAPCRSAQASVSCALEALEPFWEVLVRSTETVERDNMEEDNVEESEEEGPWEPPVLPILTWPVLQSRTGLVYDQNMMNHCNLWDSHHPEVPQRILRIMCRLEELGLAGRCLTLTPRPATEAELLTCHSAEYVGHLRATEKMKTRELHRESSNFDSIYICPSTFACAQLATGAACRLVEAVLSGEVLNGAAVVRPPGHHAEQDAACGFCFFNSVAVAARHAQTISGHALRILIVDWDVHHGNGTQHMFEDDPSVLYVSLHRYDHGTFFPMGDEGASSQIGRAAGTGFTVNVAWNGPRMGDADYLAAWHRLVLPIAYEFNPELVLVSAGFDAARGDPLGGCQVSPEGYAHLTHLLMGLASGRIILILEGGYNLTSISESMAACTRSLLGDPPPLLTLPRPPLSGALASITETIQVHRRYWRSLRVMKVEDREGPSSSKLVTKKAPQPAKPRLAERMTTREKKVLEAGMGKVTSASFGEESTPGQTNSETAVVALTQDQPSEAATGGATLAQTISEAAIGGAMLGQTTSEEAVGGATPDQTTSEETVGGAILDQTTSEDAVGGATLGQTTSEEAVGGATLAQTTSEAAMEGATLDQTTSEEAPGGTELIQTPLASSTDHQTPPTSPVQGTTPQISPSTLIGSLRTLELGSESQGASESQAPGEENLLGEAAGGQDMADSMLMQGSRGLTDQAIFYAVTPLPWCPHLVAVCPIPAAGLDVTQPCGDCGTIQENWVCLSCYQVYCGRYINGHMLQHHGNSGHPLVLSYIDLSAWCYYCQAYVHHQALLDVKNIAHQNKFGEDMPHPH
The experiment in a line: In vitro deacetylation assay, HDAC6 (GAK substrate). Particulars: for EC50: Figure 2C, in vitro data in μM; for IC50: purified human HDAC6, Ac-GAK-Ac-AMC (GAK) substrate 10 µM. The format is biochemical.

Another data set concerns histone H3 acetylation. Briefly: Histone H3 (K9/K14) acetylation in RPMI-8226 cells by Western blotting. The format is cell-based. Particulars: 6 h, Western blot. Background: Immunoblotting shows a protein as a band on a membrane.
Another data set in a line: MTT viability assay. The format is cell-based. Particulars: human, RPMI-8226 lymphoblasts, RPMI-8226 cells, read-out: EC50 cytotoxicity (MTT viability). The protocol:
(§1) RPMI-8226 lymphoblasts (ATTC #CCL-155) were used to assess the cytotoxicity of tested compounds. […] Dilution series of tested inhibitors were prepared as 10x stock solutions in PBS and 10 μL was added to cells and incubated under a 5% CO2 atmosphere at 37 °C, for 2 days. Following incubation, 10 μL of MTT reagent (3-(4,5-dimethylthiazol-2-yl)-2,5-diphenyltetrazolium bromide, 5 mg/mL in PBS, Sigma Aldrich) was added to each well and incubated for 90 min, 37 °C, 5% CO2. […]

A further data set concerns RPMI-8226 lymphoblasts. Briefly: MTT viability assay. The format is cell-based. The following applies: RPMI-8226 cells, 48 h, MTT. The protocol: as §1
A further data set deals with all other HDAC isoforms. The experiment in a line: In vitro isotype selectivity screening against panel of zinc-dependent human HDACs. In kind it is biochemical. The protocol: Customized assays were used for individual HDAC isoforms to reflect their distinct substrate specificity. All reactions were carried out in the activity buffer comprising 50 mM HEPES, 140 mM NaCl, 10 mM KCl, pH 7.4 supplemented with 1 mg/mL bovine serum albumin (BSA) and 1 mM tris(2-carboxyethyl) phosphine (TCEP).
HDACs 1–9, 11: Assays were performed essentially as described previously. Briefly, the Ac-GAK-Ac-AMC substrate was used to determine the activity of HDACs 1, 2, 3, and 6; and the Boc-Lys(TFA)-AMC substrate was used for HDACs 4, 5, 7, 8, 9, and 11 (both substrates Bachem, Bubendorf, Switzerland). […] Released aminometyl coumarine was quantified using a CLARIOstar plate reader (BMG Labtech GmbH, Ortenberg, Germany) at λex/λem = 365/440 nm.
HDAC10: Recombinant human HDAC10 (0.5 nM) in the reaction buffer was preincubated with a 3-fold dilution series of a tested inhibitor at 37 °C for 15 min and the reaction initiated by the addition of a substrate (N8-acetylspermidine labeled with fluorescein; 10 µM final concentration) in a total volume of 50 µL. […] Reaction mixtures were analyzed by RP-HPLC with a Kinetex 2.6 μm XB-C18 100 Å column with a fluorescence detector set to λEX/λEM = 492/516.
HDAC inhibition was calculated using corresponding non-inhibited reactions as a control. […]

Broadly, the EC50 is the concentration at which the effect is half-maximal. The IC50 is the point on the concentration scale where inhibition reaches its midpoint. A higher IC50 goes with lower potency. `CS(=O)(=O)N(Cc1ccc(-c2nnc(C(F)F)o2)cn1)c1cccc(Cl)c1` [compound 7, N-(3-chlorophenyl)-N-((5-(5-(difluoromethyl)-1,3,4-oxadiazol-2-yl)pyridin-2-yl)methyl)methanesulfonamide]: on HDAC6, the response was half-maximal at 0.0021 µM (EC50); the 50% inhibitory concentration (IC50) is 2.1 nM and 2.06 nM. In addition, the “effect on histone H3 (K9/K14) acetylation, class I HDAC inhibition” value in the data set with histone H3 acetylation was “does not increase H3 acetylation even at the highest concentrations”. Moreover, the half-maximal effective concentration (EC50) at 48 h in “MTT viability assay” is > 50 µM. For the same molecule, the “effect on cell viability” value in the data set with RPMI-8226 lymphoblasts is “less pronounced effects on cell viability at high inhibitor concentrations”. Further, the “selectivity for HDAC6 over all other HDAC isoforms” value in the data set on all other HDAC isoforms was 10,000 fold and > 10,000 fold.

At HDAC6, `O=C(NO)c1cnc(NC2(c3cccc(F)c3)CCCCC2)nc1` [ACY-775] displayed a 50% effective concentration (EC50) of 0.0011 µM and a half-maximal inhibitory concentration (IC50) of 1.11 nM. In addition, the EC50 at 48 h in the data set “MTT viability assay” is 8.6 µM.
